Experimental data as given in patent US20050182100A1, “Method of use” (priority 2002, published 2005).

Experiments:
[1] = tested on: patients with dyspepsia associated with gastric ulcers, duodenal ulcers, reflux esophagitis and gastroesophageal reflux without esophagitis; settings: clinical studies; cited from earlier work
[2] = at neutral or acid pH; cited from earlier work
[3] = tested on: patients affected by sleeping disturbance; assay: Administration of esomeprazole to patients affected by sleeping disturbance; type: in vivo, human; settings: especially with GERD, oral route
Excerpt: This applies especially to patients with GERD.
While the effect on the symptoms of sleeping disturbance have been established in patients who have taken esomeprazole by the oral route, it is believed that the improved effect of esomeprazole is a systemic effect which is not dependent on what mode of administration that is used, and that accordingly the improved effect on sleeping and quality of life will be seen also with other routes of administration such as rectal or parenteral administration.
The invention is further exemplified by the following case studies. During oral treatment with esomeprazole for acid related diseases such as non-erosive and erosive induced upper gastrointestinal disorders, evidence has accumulated that esomeprazole may be beneficial for treatment of sleeping disturbance especially in patients with GERD and endoscopy negative GERD.

Structure (SMILES): COc1ccc2[nH]c([S+]([O-])Cc3ncc(C)c(OC)c3C)nc2c1 (racemic) [omeprazole, 5-methoxy-2-[[(4-methoxy-3,5-dimethyl-2-pyridinyl)methyl]sulfinyl]-1H-benzimidazole]
- healing of gastroduodenal and esophageal lesions and dyspeptic symptom resolution versus H2 receptor antagonists [1]: superior to H2 receptor antagonists

Structure (SMILES): COc1ccc2nc([S@@+]([O-])Cc3ncc(C)c(OC)c3C)[nH]c2c1 [esomeprazole, S-5-methoxy-2-[[(4-methoxy-3,5-dimethyl-2-pyridinyl)methyl]sulfinyl]-1H-benzimidazole]
- storage stability [2]: poor storage stability
- effect on symptoms of sleeping disturbance [3]: disappearance or great improvement of the symptoms
